Source: ChEMBL document CHEMBL5678818, “Discovery of potent SOS1 inhibitors that block RAS activation via disruption of the RAS-SOS1 interaction” (Proc Natl Acad Sci U S A, 2019)

Experiments:
[1] = biological target: Angiopoietin-1 receptor (Homo sapiens) (UniProt Q02763); experiment: Inhibition of TIE2 (unknown origin) assessed as residual activity at 100 nM by KINOMEscan analysis relative to control
[2] = tested on: Tyrosine-protein kinase ABL1 (Homo sapiens), P00519 [E255K]; experiment: Inhibition of phosphorylated ABL1 E255K mutant (unknown origin) assessed as residual activity at 100 nM by KINOMEscan analysis relative to control
Chain of Tyrosine-protein kinase ABL1 (Homo sapiens), P00519 [E255K] (P00519 whole entry E255K, the tested form may be a part): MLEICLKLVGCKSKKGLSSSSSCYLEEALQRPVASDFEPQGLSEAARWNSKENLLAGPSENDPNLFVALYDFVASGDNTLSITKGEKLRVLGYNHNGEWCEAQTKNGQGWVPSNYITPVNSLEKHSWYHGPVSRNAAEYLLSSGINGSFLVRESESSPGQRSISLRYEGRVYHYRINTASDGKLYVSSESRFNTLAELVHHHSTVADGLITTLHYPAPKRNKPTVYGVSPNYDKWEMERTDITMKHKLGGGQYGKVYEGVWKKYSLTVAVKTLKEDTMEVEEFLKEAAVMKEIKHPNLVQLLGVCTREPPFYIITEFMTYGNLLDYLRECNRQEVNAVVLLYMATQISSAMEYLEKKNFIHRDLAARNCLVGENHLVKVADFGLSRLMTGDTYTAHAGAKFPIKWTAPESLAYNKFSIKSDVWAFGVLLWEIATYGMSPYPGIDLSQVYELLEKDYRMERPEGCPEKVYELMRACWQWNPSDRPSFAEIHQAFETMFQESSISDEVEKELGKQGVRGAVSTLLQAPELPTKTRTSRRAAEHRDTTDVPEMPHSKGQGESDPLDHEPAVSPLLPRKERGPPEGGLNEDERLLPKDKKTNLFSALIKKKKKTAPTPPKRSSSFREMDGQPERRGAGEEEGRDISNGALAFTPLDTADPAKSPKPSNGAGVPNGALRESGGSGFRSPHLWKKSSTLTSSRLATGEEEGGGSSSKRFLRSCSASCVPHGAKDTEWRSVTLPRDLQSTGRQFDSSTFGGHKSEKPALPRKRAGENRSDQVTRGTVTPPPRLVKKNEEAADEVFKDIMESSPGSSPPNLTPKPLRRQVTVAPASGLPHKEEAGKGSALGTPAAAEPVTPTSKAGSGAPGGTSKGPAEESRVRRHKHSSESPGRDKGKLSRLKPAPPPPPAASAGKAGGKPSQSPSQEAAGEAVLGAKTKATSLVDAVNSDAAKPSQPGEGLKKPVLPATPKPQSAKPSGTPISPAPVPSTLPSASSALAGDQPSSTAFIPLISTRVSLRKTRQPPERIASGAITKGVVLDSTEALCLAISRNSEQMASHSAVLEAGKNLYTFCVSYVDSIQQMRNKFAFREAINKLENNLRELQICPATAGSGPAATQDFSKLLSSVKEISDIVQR

[3] = biological target: Ribosomal protein S6 kinase alpha-5 (Homo sapiens) (UniProt O75582); experiment: Inhibition of N-terminal RPS6KA5 kinetic domain 1 (unknown origin) assessed as residual activity at 100 nM by KINOMEscan analysis relative to control
[4] = biological target: Ribosomal protein S6 kinase alpha-1 (Homo sapiens) (UniProt Q15418); experiment: Inhibition of C-terminal RSK1 kinetic domain 2 (unknown origin) assessed as residual activity at 100 nM by KINOMEscan analysis relative to control
[5] = biological target: Tyrosine-protein kinase Srms (Homo sapiens) (UniProt Q9H3Y6); experiment: Inhibition of SRMS (unknown origin) assessed as residual activity at 100 nM by KINOMEscan analysis relative to control
Chain of Tyrosine-protein kinase Srms (Homo sapiens) (Q9H3Y6 whole entry): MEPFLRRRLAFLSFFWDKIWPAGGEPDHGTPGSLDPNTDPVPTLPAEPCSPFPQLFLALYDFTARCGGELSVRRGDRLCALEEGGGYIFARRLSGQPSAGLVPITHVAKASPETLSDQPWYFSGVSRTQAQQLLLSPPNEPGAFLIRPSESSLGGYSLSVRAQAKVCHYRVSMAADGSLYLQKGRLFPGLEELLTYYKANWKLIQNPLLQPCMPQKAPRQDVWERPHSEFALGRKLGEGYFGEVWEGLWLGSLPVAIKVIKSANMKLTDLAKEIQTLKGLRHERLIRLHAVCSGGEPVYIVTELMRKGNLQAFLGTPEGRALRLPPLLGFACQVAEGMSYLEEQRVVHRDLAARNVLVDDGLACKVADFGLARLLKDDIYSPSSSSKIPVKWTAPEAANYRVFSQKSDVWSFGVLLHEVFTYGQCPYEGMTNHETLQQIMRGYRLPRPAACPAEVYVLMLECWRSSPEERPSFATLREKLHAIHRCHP

[6] = biological target: Mitotic checkpoint serine/threonine-protein kinase BUB1 (Homo sapiens) (UniProt O43683); experiment: Inhibition of BUB1 (unknown origin) assessed as residual activity at 100 nM by KINOMEscan analysis relative to control
[7] = biological target: Macrophage colony-stimulating factor 1 receptor (Homo sapiens) (UniProt P07333); experiment: Inhibition of autoinhibited CSF1R (unknown origin) assessed as residual activity at 100 nM by KINOMEscan analysis relative to control
Chain of Macrophage colony-stimulating factor 1 receptor (Homo sapiens) (P07333 whole entry): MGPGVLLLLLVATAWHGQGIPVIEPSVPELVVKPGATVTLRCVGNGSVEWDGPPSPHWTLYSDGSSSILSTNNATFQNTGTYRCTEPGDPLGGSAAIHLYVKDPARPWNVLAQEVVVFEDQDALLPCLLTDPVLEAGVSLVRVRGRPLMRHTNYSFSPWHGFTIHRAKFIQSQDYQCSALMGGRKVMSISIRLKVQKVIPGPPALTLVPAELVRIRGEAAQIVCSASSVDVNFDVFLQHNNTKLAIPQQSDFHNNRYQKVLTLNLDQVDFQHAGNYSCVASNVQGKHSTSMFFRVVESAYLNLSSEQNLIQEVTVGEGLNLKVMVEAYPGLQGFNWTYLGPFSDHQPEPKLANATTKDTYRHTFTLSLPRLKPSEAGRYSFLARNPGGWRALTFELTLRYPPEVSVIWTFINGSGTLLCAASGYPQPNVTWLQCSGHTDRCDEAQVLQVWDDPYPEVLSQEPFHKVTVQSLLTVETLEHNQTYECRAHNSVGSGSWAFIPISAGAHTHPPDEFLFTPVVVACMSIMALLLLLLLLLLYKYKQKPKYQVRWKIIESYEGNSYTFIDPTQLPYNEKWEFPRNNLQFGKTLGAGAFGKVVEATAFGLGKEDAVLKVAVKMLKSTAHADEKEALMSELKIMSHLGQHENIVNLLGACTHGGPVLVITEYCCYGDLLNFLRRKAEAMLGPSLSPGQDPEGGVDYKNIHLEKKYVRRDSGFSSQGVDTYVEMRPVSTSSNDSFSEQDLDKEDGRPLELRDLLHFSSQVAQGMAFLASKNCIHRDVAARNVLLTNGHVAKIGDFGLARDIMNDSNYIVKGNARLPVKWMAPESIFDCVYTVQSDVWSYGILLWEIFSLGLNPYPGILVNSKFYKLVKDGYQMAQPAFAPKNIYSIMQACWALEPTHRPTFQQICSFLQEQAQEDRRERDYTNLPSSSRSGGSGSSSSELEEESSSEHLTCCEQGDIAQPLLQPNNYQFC

[8] = biological target: Dual specificity tyrosine-phosphorylation-regulated kinase 1B (Homo sapiens) (UniProt Q9Y463); experiment: Inhibition of DYRK1B (unknown origin) assessed as residual activity at 100 nM by KINOMEscan analysis relative to control
[9] = biological target: ALK tyrosine kinase receptor (Homo sapiens) (UniProt Q9UM73); experiment: Inhibition of ALK (unknown origin) assessed as residual activity at 100 nM by KINOMEscan analysis relative to control
[10] = tested on: Epidermal growth factor receptor (Homo sapiens), P00533 [L858R,T790M]; experiment: Inhibition of EGFR L858R/T790M mutant (unknown origin) assessed as residual activity at 100 nM by KINOMEscan analysis relative to control
[11] = biological target: Tyrosine-protein kinase SYK (Homo sapiens) (UniProt P43405); experiment: Inhibition of SYK (unknown origin) assessed as residual activity at 100 nM by KINOMEscan analysis relative to control
[12] = biological target: Serine/threonine-protein kinase PLK3 (Homo sapiens) (UniProt Q9H4B4); experiment: Inhibition of PLK3 (unknown origin) assessed as residual activity at 100 nM by KINOMEscan analysis relative to control
Chain of Serine/threonine-protein kinase PLK3 (Homo sapiens) (Q9H4B4 whole entry, looked up): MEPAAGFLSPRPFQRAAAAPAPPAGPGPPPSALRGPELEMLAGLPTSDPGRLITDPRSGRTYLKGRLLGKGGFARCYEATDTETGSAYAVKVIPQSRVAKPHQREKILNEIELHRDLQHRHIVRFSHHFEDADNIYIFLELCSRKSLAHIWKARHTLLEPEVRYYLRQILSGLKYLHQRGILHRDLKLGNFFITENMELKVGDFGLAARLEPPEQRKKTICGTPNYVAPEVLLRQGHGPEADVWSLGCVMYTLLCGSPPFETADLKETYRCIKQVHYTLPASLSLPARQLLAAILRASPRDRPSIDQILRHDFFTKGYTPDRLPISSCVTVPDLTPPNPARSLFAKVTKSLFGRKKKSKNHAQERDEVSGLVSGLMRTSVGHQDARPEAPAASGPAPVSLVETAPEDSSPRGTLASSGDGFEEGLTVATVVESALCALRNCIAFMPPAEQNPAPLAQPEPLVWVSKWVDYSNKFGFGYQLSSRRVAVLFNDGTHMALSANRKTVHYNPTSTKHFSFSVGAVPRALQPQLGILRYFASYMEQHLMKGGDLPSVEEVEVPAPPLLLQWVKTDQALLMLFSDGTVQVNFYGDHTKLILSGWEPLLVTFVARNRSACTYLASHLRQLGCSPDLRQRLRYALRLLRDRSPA

[13] = biological target: T1, Phosphatidylinositol 5-phosphate 4-kinase type-2 gamma (Homo sapiens) (UniProt Q8TBX8); experiment: Inhibition of PIP5K2C (unknown origin) assessed as residual activity at 100 nM by KINOMEscan analysis relative to control
T1 sequence (whole entry): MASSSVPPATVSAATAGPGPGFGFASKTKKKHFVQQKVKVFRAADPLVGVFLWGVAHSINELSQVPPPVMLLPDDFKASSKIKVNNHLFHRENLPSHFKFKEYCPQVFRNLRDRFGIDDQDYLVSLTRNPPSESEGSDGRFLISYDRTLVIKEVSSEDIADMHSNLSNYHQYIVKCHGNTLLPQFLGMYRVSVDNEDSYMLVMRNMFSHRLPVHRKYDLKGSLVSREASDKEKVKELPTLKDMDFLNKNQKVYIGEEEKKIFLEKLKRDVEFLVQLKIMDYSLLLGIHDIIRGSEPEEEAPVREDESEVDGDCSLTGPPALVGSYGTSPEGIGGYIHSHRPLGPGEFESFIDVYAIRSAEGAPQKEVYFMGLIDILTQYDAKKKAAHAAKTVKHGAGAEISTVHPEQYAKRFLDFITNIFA

[14] = biological target: Protein kinase C eta type (Homo sapiens) (UniProt P24723); experiment: Inhibition of PRKCH (unknown origin) assessed as residual activity at 100 nM by KINOMEscan analysis relative to control
Chain of Protein kinase C eta type (Homo sapiens) (P24723 whole entry): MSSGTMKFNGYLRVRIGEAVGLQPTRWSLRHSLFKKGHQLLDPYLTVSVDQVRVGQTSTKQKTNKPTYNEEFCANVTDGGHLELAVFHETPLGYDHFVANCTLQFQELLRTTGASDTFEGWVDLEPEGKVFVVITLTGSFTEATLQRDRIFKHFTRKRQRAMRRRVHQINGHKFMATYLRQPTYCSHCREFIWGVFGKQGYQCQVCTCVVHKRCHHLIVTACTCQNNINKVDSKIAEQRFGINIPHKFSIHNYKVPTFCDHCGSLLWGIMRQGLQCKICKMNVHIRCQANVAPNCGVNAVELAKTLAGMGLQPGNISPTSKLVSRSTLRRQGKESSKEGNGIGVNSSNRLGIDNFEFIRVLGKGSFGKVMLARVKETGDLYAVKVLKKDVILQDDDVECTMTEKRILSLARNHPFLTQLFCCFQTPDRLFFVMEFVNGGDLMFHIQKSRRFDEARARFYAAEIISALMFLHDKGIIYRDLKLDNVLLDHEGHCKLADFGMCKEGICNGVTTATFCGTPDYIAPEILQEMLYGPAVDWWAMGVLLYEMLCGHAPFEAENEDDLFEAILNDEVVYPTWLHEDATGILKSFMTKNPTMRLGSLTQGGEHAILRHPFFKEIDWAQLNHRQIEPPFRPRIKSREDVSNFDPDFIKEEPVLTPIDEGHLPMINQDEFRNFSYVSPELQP

[15] = biological target: Glycogen synthase kinase-3 beta (Homo sapiens) (UniProt P49841); experiment: Inhibition of GSK3B (unknown origin) assessed as residual activity at 100 nM by KINOMEscan analysis relative to control
[16] = biological target: Calcium/calmodulin-dependent protein kinase type II subunit delta (Homo sapiens) (UniProt Q13557); experiment: Inhibition of CAMK2D (unknown origin) assessed as residual activity at 100 nM by KINOMEscan analysis relative to control

Chain of Angiopoietin-1 receptor (Homo sapiens) (Q02763 whole entry): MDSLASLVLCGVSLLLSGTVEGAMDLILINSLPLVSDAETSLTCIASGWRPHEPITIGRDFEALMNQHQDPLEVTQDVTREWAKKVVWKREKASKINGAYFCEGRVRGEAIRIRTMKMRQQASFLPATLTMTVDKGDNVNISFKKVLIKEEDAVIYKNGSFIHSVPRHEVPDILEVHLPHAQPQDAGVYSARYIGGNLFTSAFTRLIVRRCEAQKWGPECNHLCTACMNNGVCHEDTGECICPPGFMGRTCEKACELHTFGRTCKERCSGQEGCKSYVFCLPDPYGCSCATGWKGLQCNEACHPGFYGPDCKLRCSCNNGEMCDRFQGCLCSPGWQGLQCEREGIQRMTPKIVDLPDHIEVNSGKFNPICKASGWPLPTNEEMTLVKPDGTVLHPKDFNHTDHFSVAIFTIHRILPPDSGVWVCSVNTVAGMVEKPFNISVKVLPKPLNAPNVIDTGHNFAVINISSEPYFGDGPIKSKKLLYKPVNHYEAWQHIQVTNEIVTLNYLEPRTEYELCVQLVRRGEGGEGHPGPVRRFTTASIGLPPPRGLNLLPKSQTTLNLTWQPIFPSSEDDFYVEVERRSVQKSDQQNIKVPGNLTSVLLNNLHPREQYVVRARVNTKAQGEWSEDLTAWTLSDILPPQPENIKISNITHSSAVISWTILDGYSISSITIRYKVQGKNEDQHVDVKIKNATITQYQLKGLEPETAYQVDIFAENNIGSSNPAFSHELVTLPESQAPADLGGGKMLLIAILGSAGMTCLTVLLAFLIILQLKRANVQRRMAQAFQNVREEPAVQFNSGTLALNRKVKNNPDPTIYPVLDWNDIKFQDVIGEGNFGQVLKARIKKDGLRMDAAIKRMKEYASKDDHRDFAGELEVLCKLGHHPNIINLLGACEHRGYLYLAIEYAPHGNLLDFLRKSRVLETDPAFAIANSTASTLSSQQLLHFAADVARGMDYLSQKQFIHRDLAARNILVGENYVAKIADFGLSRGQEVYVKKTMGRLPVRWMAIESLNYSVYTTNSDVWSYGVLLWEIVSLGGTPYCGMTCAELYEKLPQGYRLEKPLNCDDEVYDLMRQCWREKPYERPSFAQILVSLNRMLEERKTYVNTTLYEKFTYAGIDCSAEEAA

## COc1cc2ncnc(N[C@H](C)c3cccc4ccccc34)c2cc1OC
[1]
  Activity: 68%
[2]
  Activity: 99%
[3]
  Activity: 93%
[4]
  Activity: 86%
[5]
  Activity: 79%
[6]
  Activity: 100%
[7]
  Activity: 96%
[8]
  Activity: 76%
[9]
  Activity: 87%
[10]
  Activity: 85%
[11]
  Activity: 100%
[12]
  Activity: 83%
[13]
  Activity: 96%
[14]
  Activity: 90%
[15]
  Activity: 94%
[16]
  Activity: 70%
